We go through eight compounds from US20180280377A1, “Imidazo[4,5-c]quinolin-2-one Compounds and Their Use in Treating Cancer” (ASTRAZENECA AB, priority 2015, published 2018).

In test [1] the target is T1, ATM (Homo sapiens, UniProt Q13315).
T1 construct: endogenous in cells; host or cells: HT29 cells (ECACC #85061109)
Kind of test: ATM cellular potency assay (pATM Ser1981 in irradiated HT29 cells). The conditions noted are these: 1 h compound, X-ray irradiation, pATM (Ser1981); Table 2; read-out: Assay a) ATM Cell IC50. The test is classed as cell-based.

For test [2], the target named is T2, mTOR (Homo sapiens, UniProt P42345).
T2 construct: phosphorylation of the Akt protein at Ser473 (AKT lies downstream of PI3Kα in the signal transduction pathway) in the MDA-MB-468 cells; endogenous in cells; host or cells: MDA-MB-468 cells (ATCC HTB 132)
Nature of the test: mTOR cellular potency assay (phospho-AKT Ser473 in MDA-MB-468 cells). The test is classed as cell-based. The conditions noted are these: MDA-MB-468 cells, 2 h, phospho-AKT Ser473; Table 2; read-out: Assay d) mTOR Cell IC50. The text has this: The following assays were used to measure the effects of the compounds of the present invention: a) ATM cellular potency assay; b) PI3K cellular potency assay; c) mTOR cellular potency assay; d) ATR cellular potency assay. During the description of the assays, generally: • i. The following abbreviations have been used: 4NQO=4-Nitroquinoline N-oxide; Ab=Antibody; BSA=Bovine Serum Albumin; CO2=Carbon Dioxide; DMEM=Dulbecco's Modified Eagle Medium; DMSO=Dimethyl Sulphoxide; EDTA=Ethylenediaminetetraacetic Acid; EGTA=Ethylene Glycol Tetraacetic Acid; ELISA=Enzyme-linked Immunosorbent Assay; EMEM=Eagle's Minimal Essential Medium; FBS=Foetal Bovine Serum; h=H(s); HRP=Horseradish Peroxidase; i.p.=intraperitoneal; PBS=Phosphate buffered saline; PBST=Phosphate buffered saline/Tween; TRIS=Tris(Hydroxymethyl)aminomethane; MTS reagent: [3-(4,5-dimethylthiazol-2-yl)-5-(3-carboxymethoxyphenyl)-2-(4-sulfophenyl)-2H-tetrazolium, inner salt, and an electron coupling reagent (phenazine methosulfate) PMS; s.c. sub-cutaneously. • ii. IC50 values were calculated using a smart fitting model in Genedata.
This assay was used to measure mTOR inhibition in cells. The aim of the phospho-AKT cell based mechanism of action assay using the Acumen Explorer is to identify inhibitors of either PI3Kα or mTOR-Rictor (Rapamycin insensitive companion of mTOR). This is measured by any decrease in the phosphorylation of the Akt protein at Ser473 (AKT lies downstream of PI3Kα in the signal transduction pathway) in the MDA-MB-468 cells following treatment with compound.
MDA-MB-468 cells (human breast adenocarcinoma #ATCC HTB 132) were seeded at 1500 cells/well in 40 μl of DMEM containing 10% FBS and 1% glutamine into Greiner 384 well black flat-bottomed plates. Cell plates were incubated for 18 h in a 37° C. incubator before dosing with compounds of Formula (I) in 100% DMSO using acoustic dispensing. Compounds were dosed in a 12 point concentration range into a randomised plate map. Control wells were generated either by dosing of 100% DMSO (max signal) or addition of a reference compound (a PI3K-62 inhibitor) that completely eliminated the pAKT signal (min control). Plates were incubated at 37° C. for 2 h; cells were then fixed by the addition of […] of a 3.7% formaldehyde solution. After 30 minutes the plates were washed with PBS using a Tecan PW384 plate washer. Wells were blocked and cells permeabilised with the addition of 40 μl of PBS containing 0.5% Tween20 and 1% Marvel™ (dried milk powder) and incubated for 60 minutes at r.t. The plates were washed with PBS containing 0.5% (v/v) Tween20 and 20 μl rabbit anti-phospho AKT Ser473 (Cell Signalling Technologies, #3787) in same PBS-Tween+1% MarvelTM was added and incubated overnight at 4° C.
Plates were washed 3 times with PBS+0.05% Tween 20 using a Tecan PW384. 20 μl of secondary antibody Alexa Fluor 488 anti-Rabbit (Molecular Probes, # A11008) diluted in PBS+0.05% Tween20 containing 1% Marvel™ was added to each well and incubated for 1 h at r.t. Plates were washed three times as before then 20 μl PBS added to each well and plates sealed with a black plate sealer.
The plates were read on an Acumen plate reader as soon as possible, measuring green fluorescence after excitation with 488 nm laser. Using this system IC50 values were generated and quality of plates was determined by control wells. Reference compounds were run each time to monitor assay performance.

T1 sequence (Q13315 whole entry): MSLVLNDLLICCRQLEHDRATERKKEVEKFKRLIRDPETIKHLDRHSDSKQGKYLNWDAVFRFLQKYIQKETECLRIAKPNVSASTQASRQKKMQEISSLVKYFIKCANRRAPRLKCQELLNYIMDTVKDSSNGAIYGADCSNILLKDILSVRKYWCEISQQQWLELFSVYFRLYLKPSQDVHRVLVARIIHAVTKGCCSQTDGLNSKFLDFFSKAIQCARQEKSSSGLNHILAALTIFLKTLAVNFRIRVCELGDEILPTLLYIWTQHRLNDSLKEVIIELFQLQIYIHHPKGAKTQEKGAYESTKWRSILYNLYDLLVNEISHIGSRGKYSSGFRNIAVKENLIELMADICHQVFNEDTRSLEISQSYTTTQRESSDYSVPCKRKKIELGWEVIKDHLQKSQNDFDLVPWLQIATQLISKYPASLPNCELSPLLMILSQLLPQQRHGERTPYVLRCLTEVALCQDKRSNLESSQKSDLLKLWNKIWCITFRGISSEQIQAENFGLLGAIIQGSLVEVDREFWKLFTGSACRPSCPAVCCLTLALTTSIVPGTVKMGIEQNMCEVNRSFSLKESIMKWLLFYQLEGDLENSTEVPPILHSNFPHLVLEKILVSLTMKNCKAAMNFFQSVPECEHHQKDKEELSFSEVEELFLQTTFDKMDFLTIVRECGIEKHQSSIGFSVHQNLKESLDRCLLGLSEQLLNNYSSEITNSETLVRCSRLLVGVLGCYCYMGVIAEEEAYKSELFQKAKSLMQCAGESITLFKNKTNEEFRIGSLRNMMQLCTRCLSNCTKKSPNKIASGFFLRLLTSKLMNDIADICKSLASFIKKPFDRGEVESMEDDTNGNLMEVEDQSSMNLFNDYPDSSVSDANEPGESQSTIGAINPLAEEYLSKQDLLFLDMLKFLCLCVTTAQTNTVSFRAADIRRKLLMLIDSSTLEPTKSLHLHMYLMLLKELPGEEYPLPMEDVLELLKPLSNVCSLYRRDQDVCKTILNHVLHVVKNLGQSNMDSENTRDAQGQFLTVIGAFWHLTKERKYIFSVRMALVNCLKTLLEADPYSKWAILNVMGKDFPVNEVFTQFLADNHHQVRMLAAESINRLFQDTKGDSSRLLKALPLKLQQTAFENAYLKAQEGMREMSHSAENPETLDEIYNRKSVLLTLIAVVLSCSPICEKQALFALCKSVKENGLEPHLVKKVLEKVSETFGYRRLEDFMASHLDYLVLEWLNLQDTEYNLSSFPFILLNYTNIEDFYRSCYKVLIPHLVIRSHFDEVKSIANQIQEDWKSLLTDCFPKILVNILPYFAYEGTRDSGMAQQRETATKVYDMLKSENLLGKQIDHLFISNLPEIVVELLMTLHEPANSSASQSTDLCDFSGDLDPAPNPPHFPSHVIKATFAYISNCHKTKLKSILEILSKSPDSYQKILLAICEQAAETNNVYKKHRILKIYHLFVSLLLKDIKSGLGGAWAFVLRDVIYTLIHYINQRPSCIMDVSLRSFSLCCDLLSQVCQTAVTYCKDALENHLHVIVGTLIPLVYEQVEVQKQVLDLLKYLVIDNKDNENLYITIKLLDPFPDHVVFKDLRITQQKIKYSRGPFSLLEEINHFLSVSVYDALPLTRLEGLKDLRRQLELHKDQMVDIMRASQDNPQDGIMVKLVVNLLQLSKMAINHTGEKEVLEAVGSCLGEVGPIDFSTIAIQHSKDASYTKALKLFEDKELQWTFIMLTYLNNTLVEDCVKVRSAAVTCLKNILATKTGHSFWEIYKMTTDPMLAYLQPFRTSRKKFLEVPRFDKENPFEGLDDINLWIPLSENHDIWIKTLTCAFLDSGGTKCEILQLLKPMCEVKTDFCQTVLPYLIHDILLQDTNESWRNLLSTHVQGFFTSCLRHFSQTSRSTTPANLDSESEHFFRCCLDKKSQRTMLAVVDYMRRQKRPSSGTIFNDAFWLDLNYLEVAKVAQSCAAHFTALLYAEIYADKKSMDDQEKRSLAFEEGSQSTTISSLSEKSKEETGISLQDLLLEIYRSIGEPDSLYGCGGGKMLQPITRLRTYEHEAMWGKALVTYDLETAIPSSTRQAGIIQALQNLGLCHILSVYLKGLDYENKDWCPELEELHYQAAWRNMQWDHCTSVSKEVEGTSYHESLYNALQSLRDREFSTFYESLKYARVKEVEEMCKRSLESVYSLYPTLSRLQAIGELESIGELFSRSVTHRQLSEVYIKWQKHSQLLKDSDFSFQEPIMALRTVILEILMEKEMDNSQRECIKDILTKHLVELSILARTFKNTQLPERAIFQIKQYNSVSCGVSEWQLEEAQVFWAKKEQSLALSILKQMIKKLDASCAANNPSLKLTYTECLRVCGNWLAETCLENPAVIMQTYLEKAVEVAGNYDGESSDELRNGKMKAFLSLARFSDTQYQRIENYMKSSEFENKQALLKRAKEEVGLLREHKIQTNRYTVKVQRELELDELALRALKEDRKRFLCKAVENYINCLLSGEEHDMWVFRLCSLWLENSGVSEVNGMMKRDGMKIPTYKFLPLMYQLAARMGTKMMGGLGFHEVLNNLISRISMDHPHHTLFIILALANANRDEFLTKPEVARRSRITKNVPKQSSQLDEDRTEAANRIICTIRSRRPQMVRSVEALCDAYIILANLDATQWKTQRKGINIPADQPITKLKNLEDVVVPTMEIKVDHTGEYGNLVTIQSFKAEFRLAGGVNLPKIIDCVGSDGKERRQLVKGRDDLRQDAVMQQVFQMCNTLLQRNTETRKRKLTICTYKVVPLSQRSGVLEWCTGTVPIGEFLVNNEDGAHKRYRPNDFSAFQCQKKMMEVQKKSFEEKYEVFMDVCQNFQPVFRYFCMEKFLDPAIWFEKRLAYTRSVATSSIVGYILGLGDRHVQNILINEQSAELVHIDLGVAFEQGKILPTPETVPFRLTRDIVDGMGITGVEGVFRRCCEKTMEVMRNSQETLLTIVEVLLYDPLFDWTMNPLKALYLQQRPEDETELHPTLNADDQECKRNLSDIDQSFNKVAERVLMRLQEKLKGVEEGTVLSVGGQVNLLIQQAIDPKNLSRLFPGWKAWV

As usually defined, the IC50 is the point on the concentration scale where inhibition reaches its midpoint. `CN(C)[C@@H]1CCN(c2ccc(-c3ccc4ncc5c(c4c3)n([C@@H]3CCCOC3)c(=O)n5C)cn2)C1` [Example 7]: the values for the IC50 in test [1] and in test [2] were 0.626 nM and 0.616 µM, respectively.

As to `CO[C@H]1C[C@@H](n2c(=O)n(C)c3cnc4ccc(-c5ccc(N6CCC(N(C)C)CC6)nc5)cc4c32)C1` [Example 36, 8-[6-[4-(dimethylamino)-1-piperidyl]-3-pyridyl]-1-(cis-3-methoxycyclobutyl)-3-methyl-imidazo[4,5-c]quinolin-2-one], the IC50 amounted to 0.357 nM in test [1] and 3.9 µM in test [2].

As to `CN(C)[C@H]1CCN(c2ccc(-c3cc4c(cc3F)ncc3c4n([C@H]4CCCOC4)c(=O)n3C)cn2)C1` [Example 20], the IC50 in test [1] is 36.5 nM; in test [2], above 30 µM.

Turning to `CNC1CCN(c2ccc(-c3ccc4ncc5c(c4c3)n([C@H]3C[C@@H](OC)C3)c(=O)n5C)cn2)CC1` [Example 60, 1-(cis-3-methoxycyclobutyl)-3-methyl-8-[6-[4-(methylamino)-1-piperidyl]-3-pyridyl]imidazo[4,5-c]quinolin-2-one], the IC50 in test [1] is 0.502 nM; in test [2] it was 0.989 µM.

In the case of `CO[C@H]1C[C@@H](n2c(=O)n(C)c3cnc4cc(F)c(-c5ccc(N6CC(N(C)C)C6)nc5)cc4c32)C1` [Example 31, 8-[6-[3-(dimethylamino)azetidin-1-yl]-3-pyridyl]-7-fluoro-1-(cis-3-methoxycyclobutyl)-3-methyl-imidazo[4,5-c]quinolin-2-one], the IC50 in test [1] came to 33.8 nM; in test [2], 12.8 µM.

`CNC1CCN(c2ccc(-c3cc4c(cc3F)ncc3c4n([C@H]4C[C@@H](OC)C4)c(=O)n3C)cn2)CC1` [Example 57, 7-Fluoro-1-(cis-3-methoxycyclobutyl)-3-methyl-8-[6-[4-(methylamino)-1-piperidyl]-3-pyridyl]imidazo[4,5-c]quinolin-2-one]: the IC50 turned out to be 1.16 nM in test [1] and 7.72 µM in test [2].

For the compound `CO[C@H]1CC[C@H](n2c(=O)n(C)c3cnc4ccc(-c5ccc(N6CCC(N(C)C)CC6)nc5)cc4c32)C1` (single isomer, unassigned) [Example 32, 8-[6-[4-(dimethylamino)-1-piperidyl]-3-pyridyl]-1-[trans-3-methoxycyclopentyl]-3-methyl-imidazo[4,5-c]quinolin-2-one], the IC50 is 0.307 nM in test [1] and 1.5 µM in test [2].

Regarding `CO[C@H]1C[C@@H](n2c(=O)n(C)c3cnc4cc(F)c(-c5ccc(N6CCC(N(C)C)CC6)nc5)cc4c32)C1` [Example 42, 8-[6-[4-(dimethylamino)-1-piperidyl]-3-pyridyl]-7-fluoro-1-(cis-3-methoxycyclobutyl)-3-methyl-imidazo[4,5-c]quinolin-2-one], the IC50 was 1.54 nM in test [1] and above 15.3 µM in test [2].
